Series [1] can be described thus: Apparent permeability across apical to basolateral side in human Caco2 cells. The series is classed as ADME, cell-based. The following applies: Caco-2. A general note: Caco-2 cells form a polarised layer with tight junctions and transporters.
A short description of series [2]: Volume of distribution at steady state in iv dosed rat. The following applies: in vivo, read-out: Vdss. The series is classed as ADME, organism-based.
Series [3] in a line: Oral bioavailability in dog at 10 mg/kg. Format: ADME, organism-based, Canis lupus familiaris. The following applies: in vivo.
Series [4] can be described thus: Oral bioavailability in rat at 10 mg/kg. The series is classed as ADME, organism-based. The following applies: in vivo.
Series [5] in a line: Oral bioavailability in mouse at 10 mg/kg. The following applies: in vivo. Format: ADME, organism-based.

For orientation: Papp A→B means the apparent permeability from the apical to the basolateral side of a cell layer. Turning to `CC1(C)[C@@H](O)C[C@H]1Nc1nc(NCc2cncnc2OCC(F)F)ncc1C#N`, in series [1], the Papp A→B is 11 ×10⁻⁶ cm/s.
As for `CC1(C)CC(Nc2cc(NCc3cnccc3C(F)(F)F)ncc2C#N)CC(C)(C)N1`, in series [2], the Vd worked out at 27.7 L/kg.
One may read the bioavailability as the share of a dose that reaches the circulation, judged against a reference dose that is usually intravenous. A lower bioavailability goes with little systemic uptake. In the case of `CC(F)(F)COc1ncncc1CNc1ncc(C#N)c(N[C@@H]2CC[C@H](O)C(C)(C)C2)n1`, the bioavailability in series [3] stood at 46%; in series [4], 66%; in series [5] it was 17%. In addition, the Papp A→B in series [1] turned out to be 27 ×10⁻⁶ cm/s.
As to `CC(C)(F)c1ncncc1CNc1ncc(C#N)c(N[C@@H]2C[C@H](O)C2(C)C)n1`, the Papp A→B in series [1] is 36 ×10⁻⁶ cm/s.

Values taken from ChEMBL document CHEMBL4825732, “Discovery of the Selective Protein Kinase C-θ Kinase Inhibitor, CC-90005” (J Med Chem, 2021).
